The test system of this series is CCRIS mutagenicity, Ames/micronucleus/aberration tests. As to the kind of experiment: CCRIS mutagenicity studies.
[1] abbreviates: Test System: AMES SALMONELLA TYPHIMURIUM, Strain/Indicator: TA98, Metabolic Activation: NONE, Method: PREINCUBATION
[2] abbreviates: Test System: AMES SALMONELLA TYPHIMURIUM, Strain/Indicator: TA100, Metabolic Activation: NONE, Method: PREINCUBATION
The mark [3] stands for this setting: Test System: AMES SALMONELLA TYPHIMURIUM, Strain/Indicator: TA1535, Metabolic Activation: NONE, Method: PREINCUBATION
[4] abbreviates: Test System: AMES SALMONELLA TYPHIMURIUM, Strain/Indicator: TA1537, Metabolic Activation: NONE, Method: PREINCUBATION
[5] abbreviates: Test System: AMES SALMONELLA TYPHIMURIUM, Strain/Indicator: TA98, Metabolic Activation: NONE, Method: STANDARD PLATE.
[6] abbreviates: Test System: AMES SALMONELLA TYPHIMURIUM, Strain/Indicator: TA100, Metabolic Activation: NONE, Method: STANDARD PLATE.
[7] abbreviates: Test System: AMES SALMONELLA TYPHIMURIUM, Strain/Indicator: TA1535, Metabolic Activation: NONE, Method: STANDARD PLATE.
Setting [8] is: Test System: AMES SALMONELLA TYPHIMURIUM, Strain/Indicator: TA1537, Metabolic Activation: NONE, Method: STANDARD PLATE.

Each structure is given as a SMILES string. Activity calls are given as the source filed them. No rule for the calls is given here.

As to `C/C(C=O)=C\c1ccccc1`, the mutagenic call by setting is: (Test System: AMES SALMONELLA TYPHIMURIUM, Strain/Indicator: TA98, Metabolic Activation: HAMSTER, LIVER, S-9, AROCLOR 1254 (10%), Method: PREINCUBATION) “inactive; negative”; under setting [1], “inactive; negative”; (Test System: AMES SALMONELLA TYPHIMURIUM, Strain/Indicator: TA98, Metabolic Activation: RAT, LIVER, S-9, AROCLOR 1254 (10%), Method: PREINCUBATION) “inactive; negative”; (Test System: AMES SALMONELLA TYPHIMURIUM, Strain/Indicator: TA100, Metabolic Activation: HAMSTER, LIVER, S-9, AROCLOR 1254 (10%), Method: PREINCUBATION) “inactive; negative”; under setting [2], “inactive; negative”; (Test System: AMES SALMONELLA TYPHIMURIUM, Strain/Indicator: TA100, Metabolic Activation: RAT LIVER S-9, AROCLOR 1254, Method: PREINCUBATION) “inactive; negative”. Moreover, the mutagenic call is, setting by setting: (Test System: AMES SALMONELLA TYPHIMURIUM, Strain/Indicator: TA100, Metabolic Activation: RAT, LIVER, S-9, AROCLOR 1254 (10%), Method: PREINCUBATION) “inactive; negative”; (Test System: AMES SALMONELLA TYPHIMURIUM, Strain/Indicator: TA102, Metabolic Activation: MOUSE LIVER S-9, AROCLOR 1254, Method: PREINCUBATION) “inactive; negative”; (Test System: AMES SALMONELLA TYPHIMURIUM, Strain/Indicator: TA102, Metabolic Activation: NONE, Method: PREINCUBATION) “inactive; negative”; (Test System: AMES SALMONELLA TYPHIMURIUM, Strain/Indicator: TA102, Metabolic Activation: RAT LIVER S-9, AROCLOR 1254, Method: PREINCUBATION) “inactive; negative”; (Test System: AMES SALMONELLA TYPHIMURIUM, Strain/Indicator: TA104, Metabolic Activation: MOUSE LIVER S-9, AROCLOR 1254, Method: PREINCUBATION) “inactive; negative”; (Test System: AMES SALMONELLA TYPHIMURIUM, Strain/Indicator: TA104, Metabolic Activation: NONE, Method: PREINCUBATION) “inactive; negative”. Moreover, the mutagenic call reads like this: (Test System: AMES SALMONELLA TYPHIMURIUM, Strain/Indicator: TA104, Metabolic Activation: RAT LIVER S-9, AROCLOR 1254, Method: PREINCUBATION) “inactive; negative”; (Test System: AMES SALMONELLA TYPHIMURIUM, Strain/Indicator: TA1535, Metabolic Activation: HAMSTER, LIVER, S-9, AROCLOR 1254 (10%), Method: PREINCUBATION) “inactive; negative”; under setting [3], “inactive; negative”; (Test System: AMES SALMONELLA TYPHIMURIUM, Strain/Indicator: TA1535, Metabolic Activation: RAT, LIVER, S-9, AROCLOR 1254 (10%), Method: PREINCUBATION) “inactive; negative”; (Test System: AMES SALMONELLA TYPHIMURIUM, Strain/Indicator: TA1537, Metabolic Activation: HAMSTER, LIVER, S-9, AROCLOR 1254 (10%), Method: PREINCUBATION) “inactive; negative”; under setting [4], “inactive; negative”. For the same compound, where the note is “Test System: AMES SALMONELLA TYPHIMURIUM, Strain/Indicator: TA1537, Metabolic Activation: RAT, LIVER, S-9, AROCLOR 1254 (10%), Method: PREINCUBATION”, the mutagenic call was “inactive; negative”.
On to `ClC1(Cl)C2(Cl)C3(Cl)C4(Cl)C(Cl)(Cl)C5(Cl)C3(Cl)C1(Cl)C5(Cl)C24Cl` (stereo unspecified), for which the mutagenic call (Test System: AMES SALMONELLA TYPHIMURIUM, Strain/Indicator: TA98, Metabolic Activation: HAMSTER, LIVER, S-9, AROCLOR 1254, Method: PREINCUBATION) is “inactive; negative”; the mutagenic call under setting [1] was “inactive; negative”; the mutagenic call (Test System: AMES SALMONELLA TYPHIMURIUM, Strain/Indicator: TA98, Metabolic Activation: RAT, LIVER, S-9, AROCLOR 1254, Method: PREINCUBATION) was “inactive; negative”; the mutagenic call (Test System: AMES SALMONELLA TYPHIMURIUM, Strain/Indicator: TA100, Metabolic Activation: HAMSTER, LIVER, S-9, AROCLOR 1254, Method: PREINCUBATION) was “inactive; negative”; the mutagenic call under setting [2] is “inactive; negative”; the mutagenic call (Test System: AMES SALMONELLA TYPHIMURIUM, Strain/Indicator: TA100, Metabolic Activation: RAT, LIVER, S-9, AROCLOR 1254, Method: PREINCUBATION) was “inactive; negative”. Moreover, the mutagenic call reads like this: (Test System: AMES SALMONELLA TYPHIMURIUM, Strain/Indicator: TA1535, Metabolic Activation: HAMSTER, LIVER, S-9, AROCLOR 1254, Method: PREINCUBATION) “inactive; negative”; under setting [3], “inactive; negative”; (Test System: AMES SALMONELLA TYPHIMURIUM, Strain/Indicator: TA1535, Metabolic Activation: RAT, LIVER, S-9, AROCLOR 1254, Method: PREINCUBATION) “inactive; negative”; (Test System: AMES SALMONELLA TYPHIMURIUM, Strain/Indicator: TA1537, Metabolic Activation: HAMSTER, LIVER, S-9, AROCLOR 1254, Method: PREINCUBATION) “inactive; negative”; under setting [4], “inactive; negative”; (Test System: AMES SALMONELLA TYPHIMURIUM, Strain/Indicator: TA1537, Metabolic Activation: RAT, LIVER, S-9, AROCLOR 1254, Method: PREINCUBATION) “inactive; negative”.
Consider `O=[N+]([O-])c1c(-c2ccc(Cl)cc2)nc2n1CCS2`, for which the mutagenic call reads like this: under setting [5], “inactive; negative”; under setting [6], “active; positive”; under setting [7], “inactive; negative”; under setting [8], “active; positive”; (Test System: AMES SALMONELLA TYPHIMURIUM, Strain/Indicator: TA1538, Metabolic Activation: NONE, Method: STANDARD PLATE) “inactive; negative”.
Turning to `CCOC(=O)Nc1cccc2c1[nH]c1ccncc12`, the mutagenic call under setting [4] was “inactive; negative” and the mutagenic call (Test System: AMES SALMONELLA TYPHIMURIUM, Strain/Indicator: TA1537, Metabolic Activation: RAT, LIVER, S-9, PHENOBARBITAL, Method: PREINCUBATION) was “inactive; negative”.
For `Cc1snc2ccccc12`, the mutagenic call by setting is: under setting [5], “inactive; negative”; (Test System: AMES SALMONELLA TYPHIMURIUM, Strain/Indicator: TA98, Metabolic Activation: S-9, Method: STANDARD PLATE) “inactive; negative”; under setting [6], “inactive; negative”; (Test System: AMES SALMONELLA TYPHIMURIUM, Strain/Indicator: TA100, Metabolic Activation: S-9, Method: STANDARD PLATE) “active; positive”; under setting [7], “inactive; negative”; (Test System: AMES SALMONELLA TYPHIMURIUM, Strain/Indicator: TA1535, Metabolic Activation: S-9, Method: STANDARD PLATE) “inactive; negative”. In addition, the mutagenic call is “inactive; negative” under setting [8] and “inactive; negative” (Test System: AMES SALMONELLA TYPHIMURIUM, Strain/Indicator: TA1537, Metabolic Activation: S-9, Method: STANDARD PLATE).
Take `Cc1ccc([N+](=O)[O-])c2c(NCCCN(C)C)c3ccccc3nc12`: the mutagenic call under setting [5] is “active; positive” and the mutagenic call under setting [6] is “active; positive”.
Turning to `CC(=O)OCc1ccc2ccc3cccc4ccc1c2c34`, the mutagenic call under setting [1] was “active; positive”.
As for `CCC(C)NC(=O)C=Cc1ccc([N+](=O)[O-])o1` (stereo unspecified), the mutagenic call under setting [1] is “active; positive”.
For `COc1cc(N=Nc2c(Br)cc([N+](=O)[O-])cc2[N+](=O)[O-])c(NC(C)=O)cc1N(CCOC(C)=O)CCOC(C)=O`, the mutagenic call (End Point: IN VITRO CHROMOSOMAL ABERRATIONS, Test System: CHL CELLS, Metabolic Activation: NONE) is “active; positive (structural changes)”.
